The values that follow come from US5698547A, “Cephalosporin antibiotics” (Microcide Pharmaceuticals, Inc., priority 1995, dated 1997).

Values after ≈ are worked out from the molar mass of the structure shown.

In general, MIC refers to the lowest concentration found to suppress growth.

The subject of this assay is S. aureus Col (Meth^R) (lac^-). The experiment in a line: MIC by agar dilution, S. aureus Col (Meth^R) (lac^-). It is filed as cell-based. As to conditions: Staphylococcus aureus; agar dilution; S. aureus Col (Meth^R) (lac^-); read-out: MIC. How it is done: The compounds of the invention were evaluated against several β-lactamresistant bacteria strains by determining the minimum inhibitory concentration (MIC, μg/ml) of each compound with respect to each strain. The MIC, the lowest concentration of antibiotic which inhibits growth of the test organism, was determined by the agar dilution method.
To determine the MIC for bacterial isolates, the test compound was incorporated in a series of two-fold dilutions into liquified Mueller-Hinton agar. Upon solidification, a number of different bacterial strains were spot inoculated with a replicating device onto the agar surface. […] The procedures used in these studies have been standardized by the National Committee for Clinical Laboratory Standards (NCCLS), as per the NCCLS publication entitled METHODS FOR DILUTION ANTIMICROBIAL SUSCEPTIBILITY TESTS (1991), which is incorporated herein by reference.
Aliquots of antimicrobial agents were prepared in phosphate buffered saline (PBS) at pH 7.2. Tween 20 or DMSO was used as a solubilizing vehicle as needed. Standard methods of vortexing, sonicating and gentle heat were used to facilitate solubilizing the test agent. Typically, the concentration of the stock solution was 10× that of the highest drug concentration tested. A 1.28 mg/mL stock solution was used with a subsequent highest working concentration of 128 μg/mL. Serial two-fold dilutions were done through ≤0.25 μg/mL. Each drug level was tested in duplicate. Two-fold drug dilutions were done in sterile 50 mL tubes with a final drug volume of 5 mL. Upon the addition of 45 mL of molten agar, a 10-fold dilution resulted. Two, 25 mL. plates were then poured into 15×150 mm square Petri plates with grids and allowed to harden.
A control plate with a reference drug, either cefotaxime, vancomycin or imipenem, was used as the positive growth control. Stock concentrations of reference antibiotics were prepared and frozen at -80° C. Upon preparation, the control plates were sealed and stored in the refrigerator for up to 1 week prior to use; however, imipenem control plates had to be prepared just prior to use. All test plates were used within 24 hours of preparation.
Satisfactory results were obtained where the inoculum contained about 10^4 colony forming units (cfu) ±0.5 logs. Starting with pure cultures of the test isolates on agar plates, a few isolated colonies were transferred to a tube of nutrient broth and allowed to grow 4-6 hours at 35°-36° C. to reach log-phase growth. Dropwise addition of the broth culture to PBS was done to match a 0.5 McFarland turbidity standard equal to 10^8 cfu/mL. This was further diluted ten-fold in PBS to reach a working inoculum concentration of 10^7 cfu/mL. When 1 μL of the working inoculum was applied to the agar surface a concentration of about 10^4 cfu per spot was obtained.
Disposable sterile 1 μL loops were used to inoculate test plates, with each isolate in a designated grid on the agar plate. An alternate method of inoculation involved the use of a replica plater, a device with 48 steel pins allowing the simultaneous inoculation of multiple isolates. After the spots had dried, the plates were incubated at 35°-36° C. for 16-20 hours. Endpoints were assessed as the minimum inhibitory concentration (MIC) of antimicrobial agent.
The novel agents of this invention are notable for their enhanced activity against S. aureus Col and Enterococci (E. faecium and E. faecalis). The S. aureus Col strain is a high-level PBP2a producer, whereas S. aureus Col 8A, its isogenic partner, lacks PBP2a. […] Thus, the compounds of the present invention are effective against PBP2a-producing bacteria.
In general terms: In agar dilution the substance is mixed into plates at graded concentrations.
Regarding `O=C(Cc1cccs1)N[C@@H]1C(=O)N2C(C(=O)O)=C(Sc3ccccc3I)CS[C@H]12` [Cmpd 25, (7R)-7-[(2-Thienylacetyl)amino]-3-(o-iodophenylthio)-3-cephem-4-carboxylicacid], the MIC was found to be 1 µg/mL (≈ 1.79 µM). `O=C(Cc1cccs1)N[C@@H]1C(=O)N2C(C(=O)O)=C(Sc3cc(Cl)ccc3Cl)CS[C@H]12` [Cmpd 26, (7R)-7-[(2-Thienylacetyl)amino]-3-(2,5-dichlorophenylthio)-3-cephem-4-carboxylic acid]: the MIC is 0.5 µg/mL (≈ 0.997 µM). With `O=C(Cc1ccccc1)N[C@@H]1C(=O)N2C(C(=O)O)=C(Sc3ccccc3-c3ccco3)CS[C@H]12` [Cmpd 27, (7R)-7-[(Phenylacetyl)amino]-3-(2-(2-furyl)phenylthio)-3-cephem-4-carboxylic acid], the MIC came to 1 µg/mL (≈ 2.03 µM). As to `O=C(Cc1ccccc1)N[C@@H]1C(=O)N2C(C(=O)O)=C(Sc3ccc(Cl)cc3Cl)CS[C@H]12` [Cmpd 28, (7R)-7-[(Phenylacetyl)amino]-3-(2,4-dichlorophenylthio)-3-cephem-4-carboxylic acid], the MIC came to 1 µg/mL (≈ 2.02 µM). Take `COc1ccc(CC(=O)N[C@@H]2C(=O)N3C(C(=O)O)=C(Sc4ccccc4I)CS[C@H]23)cc1` [Cmpd 29, (7R)-7-[(p-Methoxyphenylacetyl)amino]-3-(o-iodophenylthio)-3-cephem-4-carboxylic acid]: the MIC stood at 1 µg/mL (≈ 1.72 µM).

In the case of `O=C(COc1ccc(Cl)cc1)N[C@@H]1C(=O)N2C(C(=O)O)=C(Sc3ccccc3I)CS[C@H]12` [Cmpd 30, (7R)-7-[(p-Chlorophenoxyacetyl)amino]-3-(o-iodophenylthio)-3-cephem-4-carboxylic acid], the MIC worked out at 0.5 µg/mL (≈ 0.829 µM). For `O=C(COc1ccc(Cl)cc1)N[C@@H]1C(=O)N2C(C(=O)O)=C(Sc3cc(Cl)ccc3Cl)CS[C@H]12` [Cmpd 31, (7R)-7-[(p-Chlorophenoxyacetyl)amino]-3-(2,5-dichlorophenylthio)-3-cephem-4-carboxylic acid], the MIC is 1 µg/mL (≈ 1.83 µM). As for `COc1ccc(CC(=O)N[C@@H]2C(=O)N3C(C(=O)O)=C(Sc4cc(Cl)ccc4Cl)CS[C@H]23)cc1` [Cmpd 32, (7R)-7-[(p-Methoxyphenylacetyl)amino]-3-(2,5-dichlorophenylthio)-3-cephem-4-carboxylic acid], the MIC stood at 1 µg/mL (≈ 1.9 µM).

`O=C(Cc1ccccc1)N[C@@H]1C(=O)N2C(C(=O)O)=C(Sc3cc(F)ccc3Br)CS[C@H]12` [Cmpd 33, (7R)-7-[(Phenylacetyl)amino]-3-(2-bromo-5-fluorophenylthio)-3-cephem-4-carboxylic acid]: the MIC stood at 1 µg/mL (≈ 1.91 µM).

Consider `N#CCC(=O)N[C@@H]1C(=O)N2C(C(=O)O)=C(Sc3ccccc3-c3ccccc3)CS[C@H]12` [Cmpd 34, (7R)-7-[(Cyanoacetyl)amino]-3-(2-biphenylthio)-3-cephem-4-carboxylic acid], for which the MIC amounted to 2 µg/mL (≈ 4.43 µM). In the case of `O=C(CSc1ccccc1)N[C@@H]1C(=O)N2C(C(=O)O)=C(Sc3cc(Cl)ccc3Cl)CS[C@H]12` [Cmpd 35, (7R)-7-[(Phenylthioacetyl)amino]-3-(2,5-dichlorophenylthio)-3-cephem-4-carboxylic acid], the MIC was 0.5 µg/mL (≈ 0.948 µM). For the compound `C=Cc1ccccc1SC1=C(C(=O)O)N2C(=O)[C@@H](NC(=O)Cc3ccccc3)[C@H]2SC1` [Cmpd 36, (7R)-7-[(Phenylacetyl)amino]-3-(2-vinylphenylthio)-3-cephem-4-carboxylic acid], the MIC was 2 µg/mL (≈ 4.42 µM).

On to `O=C(Cc1ccccc1)N[C@@H]1C(=O)N2C(C(=O)O)=C(Sc3ccccc3-c3cccs3)CS[C@H]12` [Cmpd 37, (7R)-7-[(Phenylacetyl)amino]-3-(2-(2-thienyl)phenylthio)-3-cephem-4-carboxylic acid], for which the MIC was 2 µg/mL (≈ 3.93 µM). As to `O=C(Cc1ccccc1)N[C@@H]1C(=O)N2C(C(=O)O)=C(Sc3ccccc3CO)CS[C@H]12` [Cmpd 38, (7R)-7-[(Phenylacetyl)amino]-3-(2-hydroxymethylphenylthio)-3-cephem-4-carboxylic acid], the MIC worked out at 4 µg/mL (≈ 8.76 µM). Regarding `O=C(Cc1ccccc1)N[C@@H]1C(=O)N2C(C(=O)O)=C(Sc3ccc(Br)cc3Br)CS[C@H]12` [Cmpd 39, (7R)-7-[(Phenylacetyl)amino]-3-(2,4-dibromophenylthio)-3-cephem-4-carboxylic acid], the MIC amounted to 0.5 µg/mL (≈ 0.856 µM). Turning to `O=C(Cc1ccccc1)N[C@@H]1C(=O)N2C(C(=O)O)=C(Sc3ccc(C(F)(F)F)cc3)CS[C@H]12` [Cmpd 40, (7R)-7-[(Phenylacetyl)amino]-3-(4-trifluoromethylphenylthio)-3-cephem-4-carboxylic acid], the MIC turned out to be 4 µg/mL (≈ 8.09 µM). Turning to `Nc1nc(/C(=N/O)C(=O)N[C@@H]2C(=O)N3C(C(=O)O)=C(Sc4ccccc4-c4ccccc4)CS[C@H]23)cs1` [Cmpd 42, (7R)-7-[(Z)-2-(aminothiazol-4-yl)-2-(hydroxyimino)acetamido]-3-(2-biphenylthio)-3-cephem-4-carboxylic acid], the MIC was 4 µg/mL (≈ 7.22 µM). With `COc1ccc(Cc2ccc(-c3ccccc3SC3=C(C(=O)O)N4C(=O)[C@@H](NC(=O)Cc5ccccc5)[C@H]4SC3)s2)cc1` [Cmpd 43, (7R)-7-[(Phenylacetyl)amino]-3-(2-(2-(4-methoxyphenylmethyl)thien-5-yl)phenylthio)-3-cephem-4-carboxylic acid] the figure was 4 µg/mL (≈ 6.36 µM). Take `CSc1ccccc1SC1=C(C(=O)O)N2C(=O)[C@@H](NC(=O)Cc3ccccc3)[C@H]2SC1` [Cmpd 44, (7R)-7-[(Phenylacetyl)amino]-3-(2-methylthiophenylthio)-3-cephem-4-carboxylic acid]: the MIC stood at 2 µg/mL (≈ 4.23 µM). For `Cn1cc[n+](Cc2ccc(-c3ccccc3SC3=C(C(=O)[O-])N4C(=O)[C@@H](NC(=O)Cc5ccccc5)[C@H]4SC3)s2)c1` [Cmpd 45, (7R)-7-[(Phenylacetyl)amino]-3-(2-(2-(N-methylimidazoliummethyl)thien-5-yl)phenylthio)-3-cephem-4-carboxylic acid], the MIC came out at 4 µg/mL (≈ 6.64 µM).

As for `CC(C)(C)c1ccccc1SC1=C(C(=O)O)N2C(=O)[C@@H](NC(=O)Cc3ccccc3)[C@H]2SC1` [Cmpd 46, (7R)-7-[(Phenylacetyl)amino]-3-(2-tert-butylphenylthio)-3-cephem-4-carboxylic acid], the minimal inhibitory concentration (MIC) came to 1 µg/mL (≈ 2.07 µM). `CC(C)Oc1ccccc1SC1=C(C(=O)O)N2C(=O)[C@@H](NC(=O)Cc3ccccc3)[C@H]2SC1` [Cmpd 47, (7R)-7-[(Phenylacetyl)amino]-3-(2-isopropyloxyphenylthio)-3-cephem-4-carboxylic acid]: the MIC came to 1 µg/mL (≈ 2.06 µM).

On to `Cn1cc[n+](Cc2ccoc2-c2ccccc2SC2=C(C(=O)[O-])N3C(=O)[C@@H](NC(=O)Cc4ccccc4)[C@H]3SC2)c1` [Cmpd 48, (7R)-7-[(Phenylacetyl)amino]-3-(2-(3-(N-methylimidazoliummethyl)furan-2-yl)phenylthio)-3-cephem-4-carboxylic acid], for which the MIC worked out at 4 µg/mL (≈ 6.82 µM). As to `N#Cc1ccc(SC2=C(C(=O)O)N3C(=O)[C@@H](NC(=O)Cc4ccccc4)[C@H]3SC2)c([N+](=O)[O-])c1` [Cmpd 49, (7R)-7-[(Phenylacetyl)amino]-3-(4-cyano-2-nitrophenylthio)-3-cephem-4-carboxylic acid], the minimum inhibitory concentration (MIC) was determined as 4 µg/mL (≈ 8.06 µM). For `O=Cc1ccccc1SC1=C(C(=O)O)N2C(=O)[C@@H](NC(=O)Cc3ccccc3)[C@H]2SC1` [Cmpd 50, (7R)-7-[(Phenylacetyl)amino]-3-(2-formylphenylthio)-3-cephem-4-carboxylic acid], the MIC was found to be 2 µg/mL (≈ 4.4 µM). With `N#Cc1ccc(SC2=C(C(=O)O)N3C(=O)[C@@H](NC(=O)Cc4ccccc4)[C@H]3SC2)c(C#N)c1` [Cmpd 51, (7R)-7-[(Phenylacetyl)amino]-3-(2,4-dicyanophenylthio)-3-cephem-4-carboxylic acid] the figure was 4 µg/mL (≈ 8.39 µM).

With `N#CCC(=O)N[C@@H]1C(=O)N2C(C(=O)O)=C(Sc3ccccc3C#N)CS[C@H]12` [Cmpd 52, (7R)-7-[(Cyanoacetyl)amino]-3-(2-cyanophenylthio)-3-cephem-4-carboxylic acid], the MIC was determined as 4 µg/mL (≈ 9.99 µM).
